Key:
[1] = Recovery of squalamine from stool after oral dose (thin layer chromatography); format: in vivo, human; conditions: 200 mg oral; all stool collected for 6 days; 60% acetonitrile/1% HCl extraction
Experimental: 200 mg of squalamine was administered to a human […] as in the first example. All stool was collected for 6 days following administration. Stool was then extracted with 60% acetonitrile and 1% HCl overnight. The supernatant was collected and the presence of squalamine assessed by thin layer chromatography following published procedures. Approximately 80% of the dose could be recovered from the stool.

mesenteric nerve = test: Mesenteric nerve multiunit recording after intraluminal squalamine in colon; format: in vivo, mouse
From the text: Under appropriate and approved anesthesia, the distal colon of a mouse was externalized from the abdomen, along with the mesentary. The mesenteric blood vessels and lymphatics were carefully dissected from the mesenteric nerve, a structure that contains both the vagus (efferent and afferent) and spinal afferents. The nerve was cut, and the free end (which receives signals from the gut) was introduced into a capillary housing a silver electrode, along with the appropriate electronics required to detect and amplify weak electrical signals pulsing from the gut through the mesenteric nerve. […] Concentrations of 3, 10, 30 and 100 μM squalamine were evaluated. Responses to squalamine application were discernible at 30 μM but robust and reproducible responses were first evident at 100 μM. […] Paired experiments were comparisons of average discharge rates of a control recording period with a three-minute period during the peak response to squalamine. Statistical comparisons were made using paired t-tests. Squalamine increased the background firing rate from (mean±SD) 2.0±1.2 to 5.2±3.1 Hz (P=0.03). The latency to the onset of the firing increase was 4.4±4.1 min, while the latency to peak of the firing rate increase 12±7.5 min (FIG. 1).

[2] = test system: intrinsic primary afferent neurons (IPANs) of the colon; test: Patch-clamp of IPANs of the colon, squalamine applied to lumen, intact epithelium; format: cell-based, mouse; conditions: 30 μM, brief puff onto lumen/epithelium
From the text: In this experiment the outer adventitial layer of the mouse colon is peeled away exposing the IPANs. Individual IPANs within the myenteric plexus of the wall of the colon are patched using a patch-clamp apparatus. These cells represent the major neuronal population that communicate sensory data from the gut. They synapse with the various nerve networks within the gut that influence muscle and secretory activity, as well as connecting with vagal nerve endings. Administration of squalamine at 30 μM to the lumen (applied via a 50 ms “puff” of solution) leads to a very sustained (10 min) burst of electrical activity (FIG. 3).

[3] = test system: intrinsic primary afferent neurons (IPANs) of the colon; test: Patch-clamp of IPANs of the colon, epithelial lining peeled away; format: cell-based, mouse
Experimental: In this Example the same procedure as that described in Example 12 was followed except that the epithelial lining of the colon was peeled away prior to application of squalamine to the lumen. Signals from individual IPANs were recorded. Concentrations of squalamine as low as 1 uM could now stimulate a robust response, similar quantitatively (and qualitatively) to concentrations 30-100 fold higher, when an intact epithelium was present.

[4] = test system: N-terminally acetylated alpha-synuclein bound to DOPE/DOPS/DOPC vesicles; test: Displacement of alpha-synuclein from negatively charged vesicles (circular dichroism); format: binding
Experimental: Alpha-synuclein was mixed with a preparation of vesicles consisting of DOPE (50%), DOPS (30%), DOPC (20%). The concentration of lipid was 2.4 mM; the concentration of N-terminally acetylated alpha-synuclein was 10 μM. The interaction was followed by circular dichoroism. The concentration of squalamine was increased in 40 μM increments. […] At a ratio of lipid to squalamine of 15:1, full displacement of alpha-synuclein was observed. Addition of squalamine to a solution of alpha-synuclein alone had no effect on the circular dichroism spectrum.

endometrial cancer = test: Oral squalamine in endometrial cancer, single subject; format: in vivo, human
Experimental: A person presented with abdominal discomfort and the presence of a palpable abdominal mass. […] Surgical removal of the uterus and ovaries was followed by chemotherapy. Subsequently, a large tumor adherent to the distal colon was discovered, along with additional nodes. A colonic resection was performed along with local radiation to the peritoneum.
The individual decided to stop all chemotherapy due to progression of the cancer and the adverse reactions previously experienced. The subject began oral squalamine in capsule form in August 2012. […] The dose of squalamine was raised to 100 mg/day in two divided doses. In October 2013, the tumor adjacent to the ureter was irradiated. […] The individual remains on squalamine 100 mg/day. They are in otherwise excellent health.

[5] = test system: pancreatic adenocarcinoma; test: Oral squalamine in Stage 4b pancreatic cancer, single subject; format: in vivo, human
Experimental: A person presented with abdominal discomfort, weight loss, and malaise. After considerable medical consultations a diagnosis of pancreatic adenocarcinoma was made. The subject was treated with chemotherapy and experienced a severe adverse reaction, which included ascites and pleural effusion. […] In August 2013, the subject was evaluated for a clinical trial at TGEN in Arizona, but not admitted due to the extensive cancer evident in the pancreas, liver, and nodes.
In late August 2013, the subject was begun on 50 mg/day, then increased to 100 mg/day after a week. The subject began once monthly cycles of cisplatin and 5-FU. […] The overall level of performance of the individual continues to improve, but the ascites and pleural effusions persist. […] All concurrent chemotherapy has stopped. Squalamine treatment continues.

[6] = test system: embryonal rhabdomyosarcoma; test: Oral squalamine in sarcoma with dose finding by GI response, single subject; format: in vivo, human
Experimental: A person was seen because of the recurrence of an embryonal rhabdomyosarcoma. They noticed a mass in their left groin. […] The mass was surgically excised. The patient was then treated with a cocktail of chemotherapeutic agents. Several months later the mass was seen to recur in the left groin. The mass was again excised. Several months later, a tumor was gain noted in the groin, with a large mass present in the left lung.
At 300 mg daily, a clear effect was noted, that being mild nausea, 2 hours after dosing, followed by a bowel movement later in the day.

NHE-3 transporter = conditions: electrostatic mechanism, epithelial cell; cited from earlier work
[7] = 100 μM intraluminal, 5 experiments
[8] = intraluminal, 3, 10, 30 and 100 μM evaluated

Substance: squalamine
- dose recovered from the stool [1]: Approximately 80%
- latency to peak of the firing rate increase (mesenteric nerve; [7]): 12 ± 7.5 min
- latency to the onset of the firing increase (mesenteric nerve; [7]): 4.4 ± 4.1 min
- mesenteric nerve multiunit firing rate at peak response (mean±SD) (mesenteric nerve; 100 μM intraluminal, 5 experiments, background 2.0±1.2 Hz, P=0.03): 5.2±3.1 Hz
- effect on mesenteric nerve firing frequency (FIGS. 1A-1C) (mesenteric nerve; intraluminal squalamine): increases mesenteric nerve firing frequency
- concentration at which responses were discernible (mesenteric nerve; [8]): 30 µM
- concentration at which robust and reproducible responses were first evident (mesenteric nerve; [8]): 100 µM
- duration of burst of electrical activity / action potentials [2]: 10 min
- lowest concentration stimulating a robust IPAN response ([3]; epithelial lining peeled away): 1 µM
- fold higher concentrations needed for similar response when an intact epithelium was present ([3]; intact versus stripped epithelium): 30-100 fold
- amount of alpha-synuclein membrane bound with increasing squalamine ([4]; lipid 2.4 mM, alpha-synuclein 10 μM, squalamine in 40 μM increments): linear decrease
- effect on circular dichroism spectrum of alpha-synuclein alone ([4]; no vesicles): no effect
- PET/CT, metastases (endometrial cancer; 100 mg/day in two divided doses, February 2013 as printed): no additional metasteses were observed
- tumor status (endometrial cancer; July 2013, before dose raised to 100 mg/day): a small tumor appeared adjacent to the right ureter, and a second attached to the left descending colon
- PET/CT imaging (endometrial cancer; oral capsules from August 2012, by March 2013): no evidence of malignancy was visible
- PET/CT scan ([5]; 100 mg/day with monthly cisplatin and 5-FU, February 2014): complete loss of all PET active masses
- cytology of the peritoneal fluid ([5]; 100 mg/day, ongoing): remains negative for abnormal cells
- PET/CT scan ([5]; 50 then 100 mg/day from late August 2013, with monthly cisplatin and 5-FU, early December 2013): dramatic reduction in PET intensity of all previously active cancer
- GI response ([6]; 100 mg capsules for several days): without any noticeable GI symptoms
- GI response ([6]; 200 mg daily): without any GI response
- GI response ([6]; 300 mg daily): mild nausea
- mild nausea, time after dosing ([6]; 300 mg daily): 2 h
- tumor status ([6]; 2 months post surgery, dosing continued): no evidence of pulmonary tumors nor evidence of recurrence of any soft tissue tumor in the groin
- finding in surgically removed lung tumor ([6]; 3 weeks after initiation of dosing): massive internal hemorrhage due to blood vessel damage
- effect on NHE-3 transporter (NHE-3 transporter): inhibits the NHE-3 transporter

— patent US10975116B2, “Methods of treating and preventing gastrointestinal motility disorders using aminosterols” (Enterin, Inc., priority 2013, dated 2021)
